System: MM.1S cells
Assay: Inhibitory effect on the proliferation of MM.1S, MTS cell viability test
Format: cell-based
Conditions: Homo sapiens, MM1.S, 168 h, multiple myeloma MM.1S cells, 7 days incubation, read-out: Tumor cell inhibitory activity
Outline: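 Viability measured by MTS (OD490 minus OD690 background, 3-4 h) after a 7-day exposure of 20,000 MM.1S cells/well to 5-fold serially diluted compound, 0.2% DMSO final. Inhibition calculated relative to DMSO wells; IC50 curve-fitted, averaged over three repeats.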

Row | IC50 [µM] | SMILES
1 | 0.1 to 1 | O=C1CCC(N2Cc3c(CCCCCN4CCCc5ccccc54)cccc3C2=O)C(=O)N1 (stereo not shown) [Example 103, 3-(4-(5-(3,4-dihydroquinoline-1(2H))pentyl)-1-oxoisoindoline-2-)piperidine-2,6-dione]
2 | < 0.1 | CC(=O)N[C@@H](CCCc1cccc2c1CN(C1CCC(=O)NC1=O)C2=O)C(=O)Nc1ccc(C)c(Cl)c1 (stereo partly drawn) [Example 202, (2S)-2-acetylamino-N-(3-chloro-4-methylphenyl)-5-(2-(2,6-dioxopiperidine-3-)-1-oxoisoindoline-4-)pentanamide]
3 | 0.1 to 1 | COc1ccc(CNC(=O)[C@H](CCCc2cccc3c2CN(C2CCC(=O)NC2=O)C3=O)NC(C)=O)c(OC)c1 (stereo partly drawn) [Example 180, (2S)-2-acetylamino-N-(2,4-dimethoxybenzyl)-5-(2-(2,6-dipiperidine-3-)-1-oxoisoindoline-4-)pentanamide]
4 | < 0.1 | O=C1CCC(N2Cc3c(CCCCN4CCN(c5cccc(C(F)(F)F)c5)CC4)cccc3C2=O)C(=O)N1 (stereo not shown) [Example 220, 3-(1-oxo-4-(4-(4-(3-(trifluoromethyl)phenyl)piperazine-1-yl)butyl)isoindoline-2-yl)piperidine-2,6-dione]
5 | 1 to 20 | O=C1CCC(N2Cc3c(CCCCCN4CCN(c5cccc6ccsc56)CC4)cccc3C2=O)C(=O)N1 (stereo not shown) [Example 225, 3-(4-(5-(4-(benzothiophene-7-yl)piperazin-1-yl)pentyl)-1-oxoisoindoline-2-yl)piperidine-2,6-dione]
6 | < 0.1 | O=C1CCC(N2Cc3c(OCCCCNC(=O)N4CCC5(CC4)OCc4ccc(Cl)cc45)cccc3C2=O)C(=O)N1 (stereo not shown) [Example 154, 6-chloro-N-(4-((2-(2,6-dioxopiperidine-3-)-1-oxoisoindoline-4-)-oxy-)butyl)-3H-spiro[isobenzofuran-1,4-piperidine]-1-carboxamide]
7 | 0.1 to 1 | O=C1CCC(N2Cc3c(CCCCCN4CCCc5cc(Cl)ccc54)cccc3C2=O)C(=O)N1 (stereo not shown) [Example 115]
8 | < 0.1 | O=C1CCC(N2Cc3c(CCCCN4CCN(c5ccccc5Cl)CC4)cccc3C2=O)C(=O)N1 (stereo not shown) [Example 215, 3-(4-(4-(4-(2-chlorophenyl)piperazine-1-yl)butyl)-1-oxoisoindoline-2-yl) piperidine-2,6-dione]
9 | 0.1 to 1 | CC(=O)N[C@@H](CCCc1cccc2c1CN(C1CCC(=O)NC1=O)C2=O)C(=O)NCc1ccc(Oc2ccccc2)cc1 (stereo partly drawn) [Example 192, (2S)-2-acetylamino-5-(2-(2,6-dioxopiperidine-3-)-1-oxoisoindoline-4-)-N-(4-phenoxybenzyl)pentanamide]
10 | < 0.1 | Cc1ccccc1N1CCN(CCCCc2cccc3c2CN(C2CCC(=O)NC2=O)C3=O)CC1 (stereo not shown) [Example 217, 3-(1-oxo-4-(4-(4-(o-tolyl)piperazine-1-yl)butyl)isoindoline-2-yl)piperidine-2,6-dione]
11 | 1 to 20 | C[C@]1(N2C(=O)c3cccc(OCCCN4CCN(c5cccc(Cl)c5Cl)CC4)c3C2=O)CCC(=O)NC1=O [Example 27, (S)-4-(3-(4-(2,3-dichlorophenyl)piperazine-1-)propoxy)-2-(3-methyl-2,6-dioxopiperidine-3-)isoindoline-1,3-dione]
12 | < 0.1 | N#CC1(c2cccc(Cl)c2)CCN(C(=O)CCCOc2cccc3c2CN(C2CCC(=O)NC2=O)C3=O)CC1 (stereo not shown) [Example 83, 4-(3-chlorophenyl)-1-(4-((2-(2,6-dioxopiperidine-3-)-1-oxoisoindoline-4-)oxy)butyryl) piperidine-4-carbonitrile]
13 | < 0.1 | O=C1CCC(N2Cc3c(CCCCN4CCN(c5cc(Cl)cc(Cl)c5)CC4)cccc3C2=O)C(=O)N1 (stereo not shown) [Example 223, 3-(4-(4-(4-(3,5-dichlorophenyl)piperazine-1-yl)butyl)-1-oxoisoindoline-2-yl) piperidine-2,6-dione]
14 | < 0.1 | Cc1ccc(NC(=O)CCCCOc2cccc3c2CN(C2CCC(=O)NC2=O)C3=O)cc1Cl (stereo not shown) [Example 159, N-(3-chloro-4-methylphenyl)-5-((2-(2,6-dioxopiperidine-3-)-1-oxoisoindoline-4-)oxy)valeramide]
15 | 0.1 to 1 | Cc1ccc(NC(=O)[C@H](CCCc2cccc3c2CN(C2CCC(=O)NC2=O)C3=O)NC(=O)CCCCCN)cc1Cl (stereo partly drawn) [Example 189, 6-amino-N-((2S)-1-((3-chloro-4-methylphenyl)amino)-5-(2-(2,6-dioxopiperidine-3-)-1-oxoisoindoline-4-)-1-oxopentyl-2-)hexanamide]
16 | 0.1 to 1 | N#CC1(c2ccccc2Cl)CCN(C(=O)CCCOc2cccc3c2CN(C2CCC(=O)NC2=O)C3=O)CC1 (stereo not shown) [Example 82, 4-(2-chlorophenyl)-1-(4-((2-(2,6-dioxopiperidine-3-)-1-oxoisoindoline-4-)oxy)butyryl)piperidine-4-carbonitrile]

The remaining lines, values behind:

Row | SMILES | IC50 [µM]
17 | COc1ccc(OC)c(C2(C#N)CCN(CCCCCc3cccc4c3CN(C3CCC(=O)NC3=O)C4=O)CC2)c1 (stereo not shown) [Example 247, 4-(2,5-dimethoxyphenyl)-1-(5-(2-(2,6-dioxopiperidine-3-yl)-1-oxoisoindoline-4-yl)pentyl)piperidine-4-carbonitrile] | 0.1 to 1
18 | N#CC1(c2ccc(OC(F)(F)F)cc2)CCN(CCCCCc2cccc3c2CN(C2CCC(=O)NC2=O)C3=O)CC1 (stereo not shown) [Example 96, 1-(5-(2-(2,6-dioxopiperidine-3-)-1-oxoisoindoline-4-)pentyl)-4-(4-trifluoromethoxyphenyl)piperidine-4-carbonitrile] | < 0.1
19 | COc1ccc(C2(C#N)CCN(CCCCCc3cccc4c3CN(C3CCC(=O)NC3=O)C4=O)CC2)cc1 (stereo not shown) [Example 265, 1-(5-(2-(2,6-dioxopiperidin-3-yl)-1-oxoisoindolin-4-yl)pentyl)-4-(4-methoxyphenyl)piperidine-4-carbonitrile] | 1 to 20
20 | COc1ccc2c(c1)C1(CCN(CCCCCc3cccc4c3CN(C3CCC(=O)NC3=O)C4=O)CC1)C(=O)N2 (stereo not shown) [Example 135, 3-(4-(5-(5-methoxy-2-oxospiro[indoline-3,4′-piperidine]-1′-)pentyl)-1-oxoisoindoline-2-)piperidine-2,6-dione] | 0.1 to 1
21 | Cc1cccc(N2CCN(CCCCc3cccc4c3CN(C3CCC(=O)NC3=O)C4=O)CC2)c1 (stereo not shown) [Example 40, 3-(1-oxo-4-(4-(4-(3-methylphenyl)piperazine-1-)butyl)isoindoline-2-)piperidine-2,6-dione] | < 0.1
22 | N#CC1(c2cc(Cl)cc(Cl)c2)CCN(CCCCc2cccc3c2CN(C2CCC(=O)NC2=O)C3=O)CC1 (stereo not shown) [Example 244, 4-(3,5-dichlorophenyl)-1-(4-(2-(2,6-dioxopiperidine-3-yl)-1-oxoisoindoline-4-yl)butyl)piperidine-4-carbonitrile] | 0.1 to 1
23 | C[C@]1(N2Cc3c(OCCCN4CCN(c5cccc(Cl)c5Cl)CC4)cccc3C2=O)CCC(=O)NC1=O [Example 25, (S)-3-(4-(3-(4-(2,3-dichlorophenyl)piperazine-1-)propoxy)-1-oxoisoindoline-2-)-3-methylpiperidine-2,6-dione] | 1 to 20
24 | N#Cc1ccc(C2(C#N)CCN(CCCCCc3cccc4c3CN(C3CCC(=O)NC3=O)C4=O)CC2)cc1 (stereo not shown) [Example 268, 4-(4-cyanophenyl)-1-(5-(2-(2,6-dioxopiperidin-3-yl)-1-oxoisoindoline-4-yl)pentyl)piperidine-4-carbonitrile] | 0.1 to 1
25 | O=C1CCC(N2Cc3c(CCCCCN4CCC5(CC4)C(=O)NCN5c4ccccc4)cccc3C2=O)C(=O)N1 (stereo not shown) [Example 147, 3-(1-oxo-4-(5-(4-oxo-1-phenyl-1,3,8-triazaspiro[4.5]decane-8-)pentyl)isoindoline-2-)piperidine-2,6-dione] | 0.1 to 1
26 | COc1ccc(C2(C#N)CCN(CCCCCc3cccc4c3CN(C3CCC(=O)NC3=O)C4=O)CC2)cc1OC (stereo not shown) [Example 249, 4-(3,4-dimethoxyphenyl)-1-(5-(2-(2,6-dioxopiperidine-3-yl)-1-oxoisoindoline-4-yl)pentyl)piperidine-4-carbonitrile] | 0.1 to 1
27 | N#CC1(c2ccc(OC3COC3)cc2)CCN(CCCCCc2cccc3c2CN(C2CCC(=O)NC2=O)C3=O)CC1 (stereo not shown) [Example 270, 1-(5-(2-(2,6-dioxopiperidin-3-yl)-1-oxoisoindolin-4-yl)pentyl)-4-(4-(oxetan-3-yloxy)phenyl)piperidine-4-carbonitrile] | 0.1 to 1
28 | O=C1CCC(N2Cc3c(OCCCC(=O)N4CCc5ccccc54)cccc3C2=O)C(=O)N1 (stereo not shown) [Example 116, 3-(4-(4-(indoline-1-)-4-oxobutoxy)-1-oxoisoindoline-2-)piperidine-2,6-dione] | < 0.1
29 | O=C1CCC(N2Cc3c(OCCCCN4CCN(c5cccc(Cl)c5Cl)CC4)cccc3C2=O)C(=O)N1 (stereo not shown) [Example 240, 3-(4-(4-(4-(2,3-dichlorophenyl)piperazine-1-yl)butoxy)-1-oxoisoindoline-2-yl)piperidine-2,6-dione] | 1 to 20
30 | CC(=O)N[C@@H](CCCc1cccc2c1CN(C1CCC(=O)NC1=O)C2=O)C(=O)NCc1ccc(OCCN(C)C)cc1 (stereo partly shown) [Example 190] | 1 to 20
31 | CC(=O)N[C@@H](CCCc1cccc2c1CN(C1CCC(=O)NC1=O)C2=O)C(=O)NC12CC3CC(CC(C3)C1)C2 (stereo partly drawn) [Example 198, (2S)-2-acetylamino-N-((3R,5R,7R)-adamantane-1-)-5-(2-(2,6-dioxopiperidine-3-)-1-oxoisoindoline-4-)pentanamide] | < 0.1
32 | O=C1CCC(N2Cc3c(CCCCCN4CCC5(CC4)OC(=O)c4cc(Cl)ccc45)cccc3C2=O)C(=O)N1 (stereo not shown) [Example 129, 3-(4-(5-(5-chloro-3-oxo-3H-spiro[isobenzofuran-1,4′-piperidine]-1′-)pentyl)-1-oxoisoindoline-2-)piperidine-2,6-dione] | 0.1 to 1
33 | O=C1CCC(N2Cc3c(CCCCCN4CCC5(C=Cc6ccccc65)CC4)cccc3C2=O)C(=O)N1 (stereo not shown) [Example 141, 3-(1-oxo-4-(5-(spiro[indene-1,4′-piperidine]-1′-)pentyl)isoindoline-2-)piperidine-2,6-dione] | 0.1 to 1
34 | C[C@]1(N2Cc3c(OCCCN4CCC(C#N)(c5ccccc5Cl)CC4)cccc3C2=O)CCC(=O)NC1=O [Example 80, (S)-4-(2-chlorophenyl)-1-(3-((2-(3-methyl-2,6-dioxopiperidine-3-)-1-oxoisoindoline-4-)oxy)propyl)piperidine-4-carbonitrile] | 1 to 20
